Tested on: TGR(mREN2)27 rats
Test: Rat model of heart failure treated with a galectin-3 inhibitor
Type: in vivo
Protocol: In this study, N-acetyllactosamine (Gal3i) or an angiotensin-converting enzyme inhibitor (ACEi) was administered to TGR(mREN2)27 rats. Untreated TGR(mREN2)27 (REN2) and Sprague-Dawley (SD) rats were used as controls. TGR(mREN2)27 rats overexpress Ren-2, which leads to development of severe hypertension and ultimately heart failure. Fractional shortening, left ventricular end diastolic pressure (LVEDP), fibrosis, and survival were evaluated as a function of time.

## CC(=O)N[C@H]1C(O)O[C@H](CO)[C@@H](O[C@@H]2O[C@H](CO)[C@H](O)[C@H](O)[C@H]2O)[C@@H]1O (some centres unmarked) [Gal3i, N-acetyllactosamine]
FIG. 3A, TGR(mREN2)27 rats, relative to placebo-treated REN2 control
  fractional shortening: prevented a significant loss
FIG. 3B, SD control group did not develop heart failure
  rate of decrease in fractional shortening compared with SD control group: comparable to that of the SD control group
FIG. 3B, relative to placebo-treated REN2 control
  reduction in fractional shortening from beginning of the study to sacrifice: significantly slowed the reduction in fractional shortening
FIG. 3C, relative to placebo-treated REN2 control
  left ventricular end diastolic pressure (LVEDP): significantly improved the LVEDP
FIG. 3D
  Tau compared with SD control group: comparable to that of the SD control group
FIG. 3D, relative to placebo-treated REN2 control
  left ventricle pressure decay (Tau): significantly improved the Tau
FIG. 4A/4B, cardiac tissue sections, compared to placebo-treated REN2 control group
  cardiac fibrosis: significantly inhibited fibrosis
FIG. 5, after 40 days, placebo-treated REN2 rats about 65%
  survival (rats remaining, Kaplan-Meier): approximately 80%
